Experimental data from patent publication US12540913B2, “Chemical sensor, reagent, and method for detecting benzoic acid and benzoic acid derivative” (KABUSHIKI KAISHA TOSHIBA, priority 2023, dated 2026).
Where two headings read alike, the source gives them in different places.

Molecular target: cocaine aptamer
Details: for Kd: read-out: dissociation constant Kd

Row | SMILES | Kd (Comparative Example 1: 1 mM methyl benzoate titrated into 50 μM cocaine aptamer in D-PBS(−), no tropane derivative, binding order 1) | Kd (Example 1: 1 mM methyl benzoate titrated into 50 μM cocaine aptamer in D-PBS(−) containing 10 μM tropine) | ITC heat generation (Comparative Example 2: 1 mM tropine titrated into 50 μM cocaine aptamer in D-PBS(−)) | ITC heat generation (Comparative Example 3: 1 mM tropine titrated into 50 μM cocaine aptamer in D-PBS(−) containing 10 μM methyl benzoate)
1 | COC(=O)c1ccccc1 [methyl benzoate] | 87.7 µM | 69.7 µM | – | –
2 | CN1[C@@H]2CC[C@H]1C[C@@H](O)C2 [tropine] | – | – | no heat generation was observed | no heat generation was observed
